{"source": "patent US20130338457A1", "about": "“METHOD AND APPARATUS FOR DETECTING DISEASES ASSOCIATED WITH THE EYE” (THE REGENTS OF THE UNIVERSITY OF MICHIGAN, priority 2007, published 2013)", "assay_type_in_all_cases": "cell-based", "key": {"rat neural retina cells": {"test_system": "rat neural retina cells", "assay": "FA production in fresh rat retina pieces ex vivo", "details": "FIG. 26; for FA production with apoptotic stimulus: rat neural retina", "procedure": "(§1) To provide an in vitro correlate of the imaging method described above, studies were pursued of: RPE cells in vitro and fresh pieces of rat and human retina ex vivo. Both retinal fragments and RPE cells serve as good in vitro models of the human retina. To model the apoptotic events taking place in the eye, apoptotic stimuli (H2O2 and ceramide) were added to these samples. These stimuli are particularly judicious choices because both oxidative molecules and ceramide have been reported to be key mediators of retinal apoptosis.\n(§2) At lethal levels, FA correlates with apoptosis measured by TUNEL and other assays."}, "[1]": {"test_system": "human retinal pigment epithelial (HRPE) cells", "assay": "Flavoprotein autofluorescence (FA) measurement in cultured HRPE cells", "details": "for FA after exposure to pro-apoptotic agent: exposure for 2 hours, H2O2 0.2 mM, C2-ceramide 50 μM", "procedure": "HRPE cells were isolated from donor eyes by enzymatic digestion as previously described. Briefly, the sensory retina was separated gently from the HRPE monolayer, and the HRPE cells were removed from Bruch's membrane using one hour incubation with papain. Isolated HRPE cells were grown into Falcon Primaria flasks in DMEM/F12 containing 10% fetal bovine serum (FBS), penicillin G (100 U ml-1), streptomycin sulfate (100 μg ml-1), and amphotericin B (0.25 μg ml-1) at 37° C. in a humidified incubator under 5% CO2. In all experiments, parallel assays were performed on the second to fourth passage of HRPE cells. HRPE cells were seeded into tissue culture 96-well assay plates (black walls with clear bottoms (Costar) at the same time and density from the same parent cultures, and grown in phenol red-free complete DMEM/F12 for at least 7 days. All experiments were repeated at least three times on different cell lines.\nHRPE cells in 96-well plates were washed with Hanks' balanced salt solution (HBSS), containing Ca2+ and Mg2+, without phenol red. […] Other HRPE cells in 96-well plates were pre-incubated for 30 minutes with or without dihydroceramide C2 (50 μM), followed by stimulation with C2-ceramide (50 μM) for 2 hours in the presence and absence of the same inhibitor used during pre-incubation.\nFA was measured with a photomicroscope equipped with narrow bandwidth excitation and emission filters of 465 nm and 535 nm, respectively."}, "human retina cells": {"test_system": "human retina cells", "assay": "FA production in fresh human retina pieces ex vivo", "details": "FIG. 25; for FA production with apoptotic stimulus: human retina pieces", "procedure": "as §1, §2"}, "human neural retina": {"test_system": "human neural retina", "assay": "Cell Death Detection ELISA of neural retinal apoptosis", "procedure": "To evaluate neural retinal apoptosis, pieces of human neural retina were analyzed by using a Cell Death Detection […] kit. This photometric enzyme immunoassay provides the quantitative in vitro determination of cytoplasmic histone-associated DNA fragments (mono- and oligonucleosomes) after induced cell death (shown in FIG. 24)."}}}
{"molecule": "CCCCCCCCCCCCC/C=C/[C@@H](O)[C@H](CO)NC(C)=O", "note": "[C2-ceramide]", "values": [{"measurement": "FA production with apoptotic stimulus", "setting": "rat neural retina cells", "result": "elevated flavoprotein autofluorescence (FA)"}, {"measurement": "FA after exposure to pro-apoptotic agent", "setting": "[1]; HRPE cells", "result": "significantly elevated FA"}, {"measurement": "FA production with apoptotic stimulus", "setting": "human retina cells", "result": "elevated flavoprotein autofluorescence (FA)"}]}
{"molecule": "c1ccc2c(c1)[I+]c1ccccc1-2", "note": "[DPI]", "values": [{"measurement": "Effect of toxins on FA signal", "setting": "[1]", "result": "abrogate the FA signal"}]}
{"molecule": "CC(=O)N[C@@H](CS)C(=O)O", "note": "[N-acetyl-cysteine]", "values": [{"measurement": "Effect on hydrogen peroxide-induced FA production", "setting": "rat neural retina cells; rat neural retina cells", "result": "attenuated"}, {"measurement": "Effect on cell death by hydrogen peroxide", "setting": "human neural retina; FIG. 24", "result": "attenuated"}, {"measurement": "Effect on hydrogen peroxide-induced FA elevations", "setting": "[1]; HRPE cells, NAC 1 mM, 30 minutes pre-incubation", "result": "completely blocked FA elevations"}, {"measurement": "Effect on hydrogen peroxide-induced FA production", "setting": "human retina cells; human retina cells", "result": "attenuated"}]}
{"molecule": "CCCCCCCCCCCCCCC[C@@H](O)[C@H](CO)NC(C)=O", "note": "[dihydroceramide C2]", "values": [{"measurement": "Effect on ceramide-induced FA increases", "setting": "[1]; HRPE cells, dihydroceramide C2 50 μM, 30 minutes pre-incubation", "result": "completely blocked FA increases"}]}
{"molecule": "OO", "note": "[hydrogen peroxide]", "values": [{"measurement": "FA production with apoptotic stimulus", "setting": "rat neural retina cells", "result": "induced"}, {"measurement": "FA production with apoptotic stimulus", "setting": "rat neural retina cells; listed as H2O2", "result": "elevated flavoprotein autofluorescence (FA)"}, {"measurement": "Neural retinal apoptosis, avarage (cytoplasmic histone-associated DNA fragments)", "setting": "human neural retina; 6 hr, H2O2 200, NAC 1 mM, control 1.0000", "result": 4.3610}, {"measurement": "Cell death induced by agent", "setting": "human neural retina; FIG. 24", "result": "increased"}, {"measurement": "FA after exposure to pro-apoptotic agent", "setting": "[1]; HRPE cells", "result": "significantly elevated FA"}, {"measurement": "FA production with apoptotic stimulus", "setting": "human retina cells", "result": "induced"}, {"measurement": "FA production with apoptotic stimulus", "setting": "human retina cells; listed as H2O2", "result": "elevated flavoprotein autofluorescence (FA)"}]}
